Laboratory results as given in PubChem BioAssay (NCI).
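Results reflect a 48-hour exposure of cells in 96-well plates to compound at five concentrations. Here, GI50 denotes the concentration required for 50% inhibition of growth. The concentration for full growth arrest is given as TGI.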

Tests used:
Assay in all cases: inhibition of tumour cell growth, NCI panel, 48 h
OVCAR-4 ovarian = system: OVCAR-4 ovarian
HOP-92 NSCLC = system: HOP-92 NSCLC
SF-268 CNS = system: SF-268 CNS
SK-MEL-2 melanoma = system: SK-MEL-2 melanoma
PC-3 prostate = system: PC-3 prostate
SW-620 colon = system: SW-620 colon
A549 NSCLC = system: A549 NSCLC
SK-MEL-5 melanoma = system: SK-MEL-5 melanoma
NCI/ADR-RES ovarian = system: NCI/ADR-RES ovarian
HT29 colon = system: HT29 colon
MDA-MB-435 = system: MDA-MB-435
OVCAR-5 ovarian = system: OVCAR-5 ovarian
T-47D breast = system: T-47D breast
EKVX NSCLC = system: EKVX NSCLC
RPMI-8226 leukemia = system: RPMI-8226 leukemia
SF-295 CNS = system: SF-295 CNS
SNB-19 CNS = system: SNB-19 CNS
LOX IMVI melanoma = system: LOX IMVI melanoma
NCI-H522 lung = system: NCI-H522 lung
HS 578T breast = system: HS 578T breast
OVCAR-8 ovarian = system: OVCAR-8 ovarian
SK-MEL-28 melanoma = system: SK-MEL-28 melanoma
MALME-3M melanoma = system: MALME-3M melanoma
A498 renal = system: A498 renal
NCI-H226 lung = system: NCI-H226 lung
HCT-116 colon = system: HCT-116 colon
COLO 205 colon = system: COLO 205 colon
MOLT-4 leukemia = system: MOLT-4 leukemia
UO-31 renal = system: UO-31 renal
NCI-H23 lung = system: NCI-H23 lung
ACHN renal = system: ACHN renal
MDA-MB-231 breast = system: MDA-MB-231 breast
HCC-2998 colon = system: HCC-2998 colon
U251 CNS = system: U251 CNS
NCI-H460 lung = system: NCI-H460 lung
BT-549 breast = system: BT-549 breast
IGROV1 ovarian = system: IGROV1 ovarian
MCF7 breast = system: MCF7 breast
HOP-62 NSCLC = system: HOP-62 NSCLC
K-562 leukemia = system: K-562 leukemia
UACC-62 melanoma = system: UACC-62 melanoma
CAKI-1 renal = system: CAKI-1 renal
KM12 colon = system: KM12 colon
HCT-15 colon = system: HCT-15 colon
SF-539 CNS = system: SF-539 CNS
UACC-257 melanoma = system: UACC-257 melanoma
SR leukemia = system: SR leukemia
CCRF-CEM leukemia = system: CCRF-CEM leukemia
SN12C renal = system: SN12C renal
TK-10 renal = system: TK-10 renal
SNB-75 CNS = system: SNB-75 CNS
786-0 renal = system: 786-0 renal
DU-145 prostate = system: DU-145 prostate
M14 melanoma = system: M14 melanoma
SK-OV-3 ovarian = system: SK-OV-3 ovarian
HL-60(TB) leukemia = system: HL-60(TB) leukemia
RXF 393 renal = system: RXF 393 renal

SMILES: Nn1c(=O)n(-c2cccc(C(F)(F)F)c2)c(=O)c2cc(-c3ccc(F)cc3F)ccc21
- GI50 (OVCAR-4 ovarian): 2.55 µM
- TGI (OVCAR-4 ovarian): > 100 µM
- GI50 (HOP-92 NSCLC): 0.137 µM
- TGI (HOP-92 NSCLC): 0.523 µM
- GI50 (SF-268 CNS): 1.91 µM
- TGI (SF-268 CNS): 10.9 µM
- GI50 (SK-MEL-2 melanoma): 0.449 µM
- TGI (SK-MEL-2 melanoma): 2.07 µM
- GI50 (PC-3 prostate): 0.653 µM
- TGI (PC-3 prostate): 4.14 µM
- GI50 (SW-620 colon): 1.62 µM
- TGI (SW-620 colon): 4.41 µM
- GI50 (A549 NSCLC): 2.71 µM
- TGI (A549 NSCLC): 12.5 µM
- GI50 (SK-MEL-5 melanoma): 0.338 µM
- TGI (SK-MEL-5 melanoma): 1.24 µM
- GI50 (NCI/ADR-RES ovarian): 1.84 µM
- TGI (NCI/ADR-RES ovarian): 9.17 µM
- GI50 (HT29 colon): 3.49 µM
- TGI (HT29 colon): 13.9 µM
- GI50 (MDA-MB-435): 1.66 µM
- TGI (MDA-MB-435): 6.45 µM
- GI50 (OVCAR-5 ovarian): 3.51 µM
- TGI (OVCAR-5 ovarian): 19 µM
- GI50 (T-47D breast): 1.69 µM
- TGI (T-47D breast): 7.02 µM
- GI50 (EKVX NSCLC): 2.48 µM
- TGI (EKVX NSCLC): 8.79 µM
- GI50 (RPMI-8226 leukemia): 0.319 µM
- TGI (RPMI-8226 leukemia): 1.52 µM
- GI50 (SF-295 CNS): 1.76 µM
- TGI (SF-295 CNS): 3.76 µM
- GI50 (SNB-19 CNS): 1.07 µM
- TGI (SNB-19 CNS): 13.3 µM
- GI50 (LOX IMVI melanoma): 1.49 µM
- TGI (LOX IMVI melanoma): 3.13 µM
- GI50 (NCI-H522 lung): 0.39 µM
- TGI (NCI-H522 lung): 2.55 µM
- GI50 (HS 578T breast): 1.19 µM
- TGI (HS 578T breast): 5.43 µM
- GI50 (OVCAR-8 ovarian): 1.22 µM
- TGI (OVCAR-8 ovarian): 6.52 µM
- GI50 (SK-MEL-28 melanoma): 1.45 µM
- TGI (SK-MEL-28 melanoma): 6.65 µM
- GI50 (MALME-3M melanoma): 1.54 µM
- TGI (MALME-3M melanoma): 5.3 µM
- GI50 (A498 renal): 0.327 µM
- TGI (A498 renal): 1.3 µM
- GI50 (NCI-H226 lung): 1.53 µM
- TGI (NCI-H226 lung): 4.84 µM
- GI50 (HCT-116 colon): 0.841 µM
- TGI (HCT-116 colon): 2.29 µM
- GI50 (COLO 205 colon): 1.94 µM
- TGI (COLO 205 colon): 3.67 µM
- GI50 (MOLT-4 leukemia): 2.05 µM
- TGI (MOLT-4 leukemia): 6.12 µM
- GI50 (UO-31 renal): 2.27 µM
- TGI (UO-31 renal): 8.8 µM
- GI50 (NCI-H23 lung): 1.08 µM
- TGI (NCI-H23 lung): 4.2 µM
- GI50 (ACHN renal): 2.4 µM
- TGI (ACHN renal): 10.3 µM
- GI50 (MDA-MB-231 breast): 1.9 µM
- TGI (MDA-MB-231 breast): 6.13 µM
- GI50 (HCC-2998 colon): 2.77 µM
- TGI (HCC-2998 colon): 9.96 µM
- GI50 (U251 CNS): 1.51 µM
- TGI (U251 CNS): 9.92 µM
- GI50 (NCI-H460 lung): 0.776 µM
- TGI (NCI-H460 lung): 8.03 µM
- GI50 (BT-549 breast): 0.667 µM
- TGI (BT-549 breast): 2.14 µM
- GI50 (IGROV1 ovarian): 1.83 µM
- TGI (IGROV1 ovarian): 27.7 µM
- GI50 (MCF7 breast): 1.61 µM
- TGI (MCF7 breast): 7.08 µM
- GI50 (HOP-62 NSCLC): 1.9 µM
- TGI (HOP-62 NSCLC): 4.6 µM
- GI50 (K-562 leukemia): 0.949 µM
- TGI (K-562 leukemia): 14.8 µM
- GI50 (UACC-62 melanoma): 0.296 µM
- TGI (UACC-62 melanoma): 1.14 µM
- GI50 (CAKI-1 renal): 1.5 µM
- TGI (CAKI-1 renal): 5.14 µM
- GI50 (KM12 colon): 2.44 µM
- TGI (KM12 colon): 6.6 µM
- GI50 (HCT-15 colon): 0.649 µM
- TGI (HCT-15 colon): 2.69 µM
- GI50 (SF-539 CNS): 1.73 µM
- TGI (SF-539 CNS): 8.23 µM
- GI50 (UACC-257 melanoma): 1.05 µM
- TGI (UACC-257 melanoma): 3.97 µM
- GI50 (SR leukemia): 1.21 µM
- TGI (SR leukemia): 5.94 µM
- GI50 (CCRF-CEM leukemia): 1.14 µM
- TGI (CCRF-CEM leukemia): 6.85 µM
- GI50 (SN12C renal): 0.991 µM
- TGI (SN12C renal): 5.36 µM
- GI50 (TK-10 renal): 4.07 µM
- TGI (TK-10 renal): 8.74 µM
- GI50 (SNB-75 CNS): 1.67 µM
- TGI (SNB-75 CNS): 6.37 µM
- GI50 (786-0 renal): 2.14 µM
- TGI (786-0 renal): 5.26 µM
- GI50 (DU-145 prostate): 3.06 µM
- TGI (DU-145 prostate): 17.7 µM
- GI50 (M14 melanoma): 1.54 µM
- TGI (M14 melanoma): 4.33 µM
- GI50 (SK-OV-3 ovarian): 1.29 µM
- TGI (SK-OV-3 ovarian): 3.39 µM
- GI50 (HL-60(TB) leukemia): 1.75 µM
- TGI (HL-60(TB) leukemia): 8.76 µM
- GI50 (RXF 393 renal): 1.12 µM
- TGI (RXF 393 renal): 3.11 µM
